Measured values reported in US20260274895A1, “DE NOVO DESIGNED MEMBRANE-TRAVERSING AND ORALLY BIOAVAILABLE MACROCYCLES” (UNIVERSITY OF WASHINGTON, priority 2022, published 2026).
Values joined by “and” are separate entries in the source; they are usually repeats but may differ in a detail not shown here. Equal entries are not always repeated. Values belong to the molecule of their own block, whether it stands above or below them. Where a SMILES comes first, the peptide text is derived from it. [ ]: non-standard residue; d: D form. dNMeF = CN[C@H](Cc1ccccc1)C(=O)O; dNMeL = CN[C@H](CC(C)C)C(=O)O; dNMeA = CN[C@H](C)C(=O)O

Assays:
[1] = PAMPA, PAMPA_Papp_Avg (apparent permeability)
[2] = Pharmacokinetics of D10.1 after PO, SQ and IV dosing in mice
[3] = PAMPA
[4] = PO 12.2 mg/kg, individual mice, 12.2 mg/kg
[5] = female, Balb/C, mouse, plasma, po, 12.2 mg/kg
[6] = female, Balb/C, mouse, plasma, sc, 12.2 mg/kg

Papp [1]: 3.47 ×10⁻⁶ cm/s
SMILES: CC(C)[C@@H]1C(=O)N[C@@H](Cc2ccccc2)C(=O)N2CCC[C@H]2C(=O)N(C)[C@H](Cc2ccccc2)C(=O)N[C@H](C)C(=O)N2CCC[C@H]2C(=O)N1C (single isomer, unassigned) [Design D6.8.p1, *faP*vFP]

Papp [1]: 5.29 ×10⁻⁶ cm/s
SMILES: CC(C)C[C@H]1C(=O)N2CCC[C@@H]2C(=O)N[C@@H](Cc2ccccc2)C(=O)N2CCC[C@H]2C(=O)N[C@H](C(C)C)C(=O)N[C@H](Cc2ccccc2)C(=O)N1C (single isomer, unassigned) [Design D6.9.p1, vf*LpFP]

Papp [1]: 9.06 ×10⁻⁶ cm/s
SMILES: CC(C)C[C@H]1NC(=O)[C@H]2CCCN2C(=O)[C@@H]2CCCN2C(=O)[C@@H](Cc2ccccc2)NC(=O)[C@@H](C(C)C)NC(=O)[C@H](CC(C)C)N(C)C(=O)[C@@H](Cc2ccccc2)NC1=O (single isomer, unassigned) [Design D7.7.p2, Pplf*Lvf]

Papp [1]: 4.92 ×10⁻⁶ cm/s
SMILES: CC[C@H](C)[C@@H]1NC(=O)[C@H](Cc2ccccc2)NC(=O)[C@H]2CCCN2C(=O)[C@H]([C@@H](C)CC)NC(=O)[C@H](C(C)C)NC(=O)[C@@H](C)NC(=O)[C@H]2CCCN2C1=O (single isomer, unassigned) [Design D7.8.p2, VIpFIpa]

Half-life T1/2 ([2]; IV ([…] per Table 12), mean ±): 1.123 ± 0.113 h
Volume of distribution @ steady state VSS ([2]; IV ([…] per Table 12), mean ±): 0.25 ± 0.08 L/kg
Volume of distribution during elimination phase VZ ([2]; IV ([…] per Table 12), mean ±): 0.32 ± 0.07 L/kg
Plasma level ([2]; PO 12.2 mg/kg, 15 min, AVG): 2.58 µM
Plasma level ([2]; PO 12.2 mg/kg, 15 min, individual mice, 12.2 mg/kg): 2.22 µM and 3.26 µM and 2.26 µM
Plasma level ([2]; PO 12.2 mg/kg, 30 min, AVG): 2.92 µM
Plasma level ([2]; PO 12.2 mg/kg, 30 min, individual mice, 12.2 mg/kg): 2.49 µM and 3.64 µM and 2.64 µM
Plasma level ([2]; PO 12.2 mg/kg, 60 min, AVG): 1.78 µM
Plasma level ([2]; PO 12.2 mg/kg, 60 min, individual mice, 12.2 mg/kg): 1.57 µM and 2.14 µM and 1.64 µM
Plasma level ([2]; PO 12.2 mg/kg, 120 min, AVG): 0.72 µM
Plasma level ([2]; PO 12.2 mg/kg, 120 min, individual mice, 12.2 mg/kg): 0.54 µM and 0.8 µM and 0.81 µM
Plasma level ([2]; PO 12.2 mg/kg, 240 min, AVG): 0.16 µM
Plasma level ([2]; PO 12.2 mg/kg, 240 min, individual mice, 12.2 mg/kg): 0.13 µM and 0.18 µM and 0.17 µM
Plasma level ([2]; PO 12.2 mg/kg, 360 min, AVG): 0.07 µM
Plasma level ([2]; PO 12.2 mg/kg, 360 min, individual mice, 12.2 mg/kg): 0 μM and 0.1 μM (2×)
Plasma level ([2]; PO 12.2 mg/kg, 1440 min, AVG): 0 µM
Plasma level ([2]; PO 12.2 mg/kg, 1440 min, individual mice): 0 µM
AUC0-t ([2]; PO 12.2 mg/kg, AVG): 270.4 µmol·min/L
AUC0-∞ ([2]; PO 12.2 mg/kg, AVG): 279.94 µmol·min/L
CI/F ([2]; PO 12.2 mg/kg, AVG): 0.000785 L/min
Cmax ([2]; PO 12.2 mg/kg, AVG): 2920 nM
Tmax ([2]; PO 12.2 mg/kg, individual mice): 0.5 h
Cmax [2, 4]: 2490 nM and 3640 nM and 2640 nM
T1/2 [2, 4]: 0.8313 h and 1.051 h and 1.132 h
Apparent clearance CI/F ([2]; PO (12.2 mg/kg per Table 10), mean): 0.000785 L/min
Half-life T1/2 ([2]; PO (12.2 mg/kg per Table 10), mean ±): 1.005 ± 0.156 h
Oral bioavailability F ([2]; PO, IV dosing as reference, mean ±): 7.48 ± 1.79%
Plasma level ([2]; SQ 12.2 mg/kg, 15 min, AVG): 2.53 µM
Plasma level ([2]; SQ 12.2 mg/kg, 15 min, individual mice): 1.39 µM and 2.44 µM and 3.75 µM
Plasma level ([2]; SQ 12.2 mg/kg, 30 min, AVG): 3.55 µM
Plasma level ([2]; SQ 12.2 mg/kg, 30 min, individual mice): 1.81 µM and 3.69 µM and 5.15 µM
Plasma level ([2]; SQ 12.2 mg/kg, 60 min, AVG): 3.93 µM
Plasma level ([2]; SQ 12.2 mg/kg, 60 min, individual mice): 1.87 µM and 4.88 µM and 5.03 µM
Plasma level ([2]; SQ 12.2 mg/kg, 360 min, AVG): 2.29 µM
Plasma level ([2]; SQ 12.2 mg/kg, 360 min, individual mice): 2.4 µM and 2.19 µM
Plasma level ([2]; SQ 12.2 mg/kg, 1440 min, AVG): 0.01 µM
Plasma level ([2]; SQ 12.2 mg/kg, 1440 min, individual mice): 0 μM (2×) and 0.03 μM
AUC0-t ([2]; SQ 12.2 mg/kg, AVG): 1879.54 µmol·min/L
AUC0-∞ ([2]; SQ 12.2 mg/kg, AVG): 2867.17 µmol·min/L
CI/F ([2]; SQ 12.2 mg/kg, AVG): 7.96e-05 L/min
Cmax ([2]; SQ 12.2 mg/kg, AVG): 4140 nM
T1/2 ([2]; SQ 12.2 mg/kg, AVG): 3.7563 h
Tmax ([2]; SQ 12.2 mg/kg, AVG): 2.5 h
CI/F ([2]; SQ 12.2 mg/kg, individual mice): 5.97e-05 L/min and 9.96e-05 L/min
Cmax ([2]; SQ 12.2 mg/kg, individual mice): 2400 nM and 4880 nM and 5150 nM
T1/2 ([2]; SQ 12.2 mg/kg, individual mice): 3.1823 h and 4.3302 h
level at time molar at 0.25 h [2, 5]: 2580 ± 590 nM
level at time molar at 0.5 h [2, 5]: 2920 ± 630 nM
level at time molar at 1 h [2, 5]: 1780 ± 310 nM
level at time molar at 2 h [2, 5]: 720 ± 150 nM
level at time molar at 4 h [2, 5]: 160 ± 30 nM
level at time molar at 6 h [2, 5]: 70 ± 60 nM
CL/F [2, 6]: 0.0796 mL/min
level at time molar at 0.25 h [2, 6]: 2530 ± 1180 nM
level at time molar at 0.5 h [2, 6]: 3550 ± 1670 nM
level at time molar at 1 h [2, 6]: 3930 ± 1780 nM
level at time molar at 6 h [2, 6]: 2290 ± 150 nM
level at time molar at 24 h [2, 6]: 10 ± 20 nM
bioavailability ([2]; mouse, in vivo): 7.5 to 11%
Cmax ([2]; mouse, in vivo, sc, 12.2 mg/kg): 4140 ± 1510 nM
Tmax ([2]; mouse, in vivo, sc, 12.2 mg/kg): 2.5 h
half-life ([2]; mouse, in vivo, sc, 12.2 mg/kg): 3.76 ± 0.812 h
SMILES: CC[C@H](C)[C@@H]1NC(=O)[C@@H](CC(C)C)NC(=O)[C@H](CC(C)C)N(C)C(=O)[C@H](Cc2ccccc2)NC(=O)CN(C)C(=O)[C@@H]2CCCN2C(=O)[C@H](C(C)C)NC(=O)[C@H](Cc2ccccc2)N(C)C(=O)[C@H]2CCCN2C(=O)[C@H](CC(C)C)NC1=O [Design D10.1, lILp*FVP*GF*L]
AUC0-t [2, 4]: 216.96 µmol·min/L and 327.78 µmol·min/L and 266.45 µmol·min/L
AUC0-∞ [2, 4]: 226.62 µmol·min/L and 337.03 µmol·min/L and 276.18 µmol·min/L
CI/F [2, 4]: 0.000944 L/min and 0.000635 L/min and 0.000775 L/min
AUC0-t ([2]; SQ 12.2 mg/kg, individual mice): 730.93 µmol·min/L and 3578.6 µmol·min/L and 1329.09 µmol·min/L
AUC0-∞ ([2]; SQ 12.2 mg/kg, individual mice): 3585.94 µmol·min/L and 2148.41 µmol·min/L

PAMPA_Papp_Avg (apparent permeability) [3]: 0.487 ×10⁻⁶ cm/s
SMILES: CC[C@H](C)[C@@H]1NC(=O)[C@@H](Cc2ccccc2)NC(=O)[C@@H](C)NC(=O)[C@@H](C(C)C)NC(=O)[C@H](CCSC)NC(=O)[C@@H]2CCCN2C(=O)[C@H]2CCCN2C(=O)[C@@H]2CCCN2C(=O)[C@@H](C)N(C)C(=O)[C@@H](CC(C)C)N(C)C1=O [Design D10.45, vafI*l*aPpPM] (cyclo(M[dV][dA][dF]I[dNMeL][dNMeA]P[dP]P))

PAMPA_Papp_Avg (apparent permeability) [3]: 0.17 ×10⁻⁶ cm/s
SMILES: CC(C)C[C@@H]1NC(=O)[C@H](C)NC(=O)[C@@H]2CCCN2C(=O)[C@H]2CCCN2C(=O)[C@H](Cc2ccccc2)NC(=O)[C@H]2CCCN2C(=O)[C@@H](Cc2ccccc2)N(C)C(=O)[C@@H]2CCCN2C(=O)[C@@H](C)NC(=O)[C@H](CC(C)C)NC1=O [Design D10.49, aP*fpFpPALL] (cyclo(ALL[dA]P[dNMeF][dP]F[dP]P))
